{"source": "ChEMBL document CHEMBL1201862", "about": "“PubChem BioAssay data set” (2004)", "key": {"[1]": {"experiment": "HEp-2 cell cytotoxicity, dose response, cytotoxicity control for RSV inhibitor project, HTS (AID 2410)", "assay_type": "functional", "conditions": "human respiratory syncytial virus"}, "Genome polyprotein": {"molecular_target": "Genome polyprotein (Hepatitis C virus, UniProt Q2Q167)", "sequence (Q2Q167 whole entry)": "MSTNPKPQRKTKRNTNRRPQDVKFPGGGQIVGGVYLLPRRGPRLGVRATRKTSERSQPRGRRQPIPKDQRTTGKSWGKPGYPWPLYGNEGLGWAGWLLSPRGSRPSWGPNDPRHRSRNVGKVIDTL", "experiment": "HCV core protein dimerization inhibitors, dose response, biochemical, TR-FRET (AID 2159);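 note: blocks dimerization of HCV core protein measured by TR-FRET between tagged core106 pairs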", "parameters": "species or system Hepacivirus hominis"}, "Estrogen receptor": {"molecular_target": "Estrogen receptor (Homo sapiens, UniProt P03372)", "sequence (P03372 whole entry)": "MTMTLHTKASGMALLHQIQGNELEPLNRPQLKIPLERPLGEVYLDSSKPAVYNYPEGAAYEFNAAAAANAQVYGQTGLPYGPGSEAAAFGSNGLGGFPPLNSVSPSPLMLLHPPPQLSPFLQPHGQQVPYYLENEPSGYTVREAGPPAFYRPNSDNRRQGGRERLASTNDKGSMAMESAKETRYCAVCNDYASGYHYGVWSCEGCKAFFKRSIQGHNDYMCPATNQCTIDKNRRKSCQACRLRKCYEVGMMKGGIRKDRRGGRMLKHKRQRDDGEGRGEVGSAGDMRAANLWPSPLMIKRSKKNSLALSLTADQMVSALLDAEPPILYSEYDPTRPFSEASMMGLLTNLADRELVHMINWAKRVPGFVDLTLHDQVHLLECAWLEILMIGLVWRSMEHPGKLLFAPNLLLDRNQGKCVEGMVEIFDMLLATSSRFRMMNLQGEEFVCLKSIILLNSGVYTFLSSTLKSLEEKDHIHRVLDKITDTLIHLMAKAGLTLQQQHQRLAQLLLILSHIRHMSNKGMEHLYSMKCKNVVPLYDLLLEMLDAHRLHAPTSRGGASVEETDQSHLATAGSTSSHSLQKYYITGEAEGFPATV"}, "[2]": {"molecular_target": "Diphosphomevalonate decarboxylase (Streptococcus pneumoniae serotype 2 (strain D39 / NCTC 7466), UniProt Q9FD53)", "sequence (Q9FD53 whole entry)": "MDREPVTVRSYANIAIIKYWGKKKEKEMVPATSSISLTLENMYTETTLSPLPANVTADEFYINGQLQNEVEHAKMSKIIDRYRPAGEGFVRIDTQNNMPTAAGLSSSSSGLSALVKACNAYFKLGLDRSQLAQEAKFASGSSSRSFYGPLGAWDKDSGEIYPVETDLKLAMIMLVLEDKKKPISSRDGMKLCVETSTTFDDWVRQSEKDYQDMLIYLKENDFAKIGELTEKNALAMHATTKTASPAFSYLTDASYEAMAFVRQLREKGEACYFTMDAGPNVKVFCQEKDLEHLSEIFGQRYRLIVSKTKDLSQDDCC", "experiment": "S. pneumoniae DPM-DC inhibition retest, confirmation, biochemical, cuvette format, coupled NADH fluorescence (AID 1028)", "assay_type": "functional"}, "[3]": {"molecular_target": "T1, Methionyl-tRNA synthetase, putative (Trypanosoma brucei brucei, UniProt Q38C91)", "T1 sequence (Q38C91 whole entry)": "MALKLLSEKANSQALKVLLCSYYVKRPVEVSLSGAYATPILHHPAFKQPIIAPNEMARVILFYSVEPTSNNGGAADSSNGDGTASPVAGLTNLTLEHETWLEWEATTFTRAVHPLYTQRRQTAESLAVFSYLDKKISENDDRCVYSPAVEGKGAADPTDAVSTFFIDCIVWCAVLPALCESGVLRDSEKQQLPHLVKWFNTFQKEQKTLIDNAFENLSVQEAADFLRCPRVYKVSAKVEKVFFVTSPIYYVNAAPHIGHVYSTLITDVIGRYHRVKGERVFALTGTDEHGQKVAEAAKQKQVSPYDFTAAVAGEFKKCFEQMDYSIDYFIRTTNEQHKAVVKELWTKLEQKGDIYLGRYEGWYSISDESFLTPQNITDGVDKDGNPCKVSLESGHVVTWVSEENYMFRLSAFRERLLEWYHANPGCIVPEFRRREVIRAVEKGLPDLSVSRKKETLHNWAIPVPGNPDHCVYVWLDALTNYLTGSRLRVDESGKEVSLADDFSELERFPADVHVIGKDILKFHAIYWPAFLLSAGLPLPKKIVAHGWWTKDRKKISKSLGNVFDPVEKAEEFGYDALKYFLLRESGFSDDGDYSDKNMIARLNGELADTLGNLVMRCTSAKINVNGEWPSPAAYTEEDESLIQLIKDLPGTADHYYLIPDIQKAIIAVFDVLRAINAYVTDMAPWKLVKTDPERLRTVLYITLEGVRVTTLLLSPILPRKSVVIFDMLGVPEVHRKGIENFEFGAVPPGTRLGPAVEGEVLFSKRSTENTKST", "assay_type": "functional, Trypanosoma brucei brucei strain 927/4 GUTat10.1"}, "[4]": {"experiment": "Counterscreen for inhibitors of Trypanosoma brucei methionyl tRNA synthetase (MetRS): Luminescence-based cell-based high throughput dose response assay to identify compounds that are cytotoxic to Jurkat human T lymphocyte cells.", "assay_type": "functional"}, "[5]": {"molecular_target": "T1, Methionyl-tRNA synthetase, putative", "assay_type": "functional, Trypanosoma brucei brucei strain 927/4 GUTat10.1", "remark": "listed apart in the source"}, "[6]": {"experiment": "Late stage counterscreen for inhibitors of Trypanosoma brucei methionyl tRNA synthetase (MetRS): Luminescence-based cell-based high throughput dose response assay to identify compounds that are cytotoxic to Jurkat human T lymphocyte cells.", "assay_type": "functional"}, "[7]": {"experiment": "half-maximal inhibitory concentration for glucagon-like peptide-1 release, STC-1 cell line, dose-response (AID 1117345)", "assay_type": "functional, cell-based"}, "[8]": {"experiment": "Glucagon-like peptide 1 release potency, NCI-H716 cell line, dose-response, half-maximal inhibitory concentration (AID 1117344)", "assay_type": "functional, cell-based"}, "[9]": {"experiment": "A Cell-Based Confirmatory Screen for Compounds that Inhibit VEEV, TC-83 (5).", "assay_type": "functional"}, "[10]": {"experiment": "A Cell-Based Confirmatory Screen for Compounds that Inhibit VEEV TC-83 (4).", "assay_type": "functional"}, "[11]": {"experiment": "HIF luciferase reporter inhibitors, dose response, ARNT-TACC3 inhibitor project, cell-based, dry powder samples, luminescence, 2158-07 (AID 720561)", "assay_type": "functional"}, "[12]": {"experiment": "Late-stage results from the probe development effort to identify antagonists of arginine vasopressin receptor 1a (AVPR1a): fluorescence-based cell-based dose response AVPR1a inhibition assay.", "assay_type": "functional"}, "Vasopressin V1b receptor": {"molecular_target": "Vasopressin V1b receptor (Homo sapiens, UniProt P47901)", "sequence (P47901 whole entry)": "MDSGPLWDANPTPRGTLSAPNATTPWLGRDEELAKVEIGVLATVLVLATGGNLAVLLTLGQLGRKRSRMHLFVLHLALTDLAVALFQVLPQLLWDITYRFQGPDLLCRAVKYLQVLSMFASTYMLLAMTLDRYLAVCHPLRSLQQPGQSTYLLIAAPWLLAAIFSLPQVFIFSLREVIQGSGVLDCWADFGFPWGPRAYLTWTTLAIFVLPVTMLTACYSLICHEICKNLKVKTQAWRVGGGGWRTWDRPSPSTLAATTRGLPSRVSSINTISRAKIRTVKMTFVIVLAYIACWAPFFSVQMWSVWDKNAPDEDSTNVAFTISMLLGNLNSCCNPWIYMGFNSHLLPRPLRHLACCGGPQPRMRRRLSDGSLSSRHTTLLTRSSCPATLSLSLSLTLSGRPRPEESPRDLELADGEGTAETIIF", "experiment": "Late-stage results from the probe development effort to identify antagonists of arginine vasopressin receptor 1a (AVPR1a): fluorescence-based cell-based dose response AVPR1b inhibition counterscreen assay.", "assay_type": "functional"}, "Vasopressin V2 receptor": {"molecular_target": "Vasopressin V2 receptor (Homo sapiens, UniProt P30518)", "sequence (P30518 whole entry)": "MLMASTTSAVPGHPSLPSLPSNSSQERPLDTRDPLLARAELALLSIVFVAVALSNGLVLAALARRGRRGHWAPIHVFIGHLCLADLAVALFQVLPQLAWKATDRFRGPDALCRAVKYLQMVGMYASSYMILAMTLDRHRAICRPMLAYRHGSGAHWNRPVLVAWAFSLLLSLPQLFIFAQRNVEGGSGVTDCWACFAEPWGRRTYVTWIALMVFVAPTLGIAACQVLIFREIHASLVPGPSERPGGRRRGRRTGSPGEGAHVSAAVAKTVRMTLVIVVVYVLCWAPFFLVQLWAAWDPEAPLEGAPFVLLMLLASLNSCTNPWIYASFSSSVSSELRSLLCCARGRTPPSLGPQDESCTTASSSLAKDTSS", "experiment": "Late-stage results from the probe development effort to identify antagonists of arginine vasopressin receptor 1a (AVPR1a): fluorescence-based cell-based dose response AVPR2 inhibition counterscreen assay.", "assay_type": "functional"}, "[13]": {"experiment": "Late-stage results from the probe development effort to identify antagonists of arginine vasopressin receptor 1a (AVPR1a): fluorescence-based cell-based dose response OXTR inhibition counterscreen assay.", "assay_type": "functional"}, "[14]": {"experiment": "A375 melanoma cell viability loss, dose response, counter-screen for MITF inhibitor project, CellTiter-Glo luminescence, dry powder, set 4 (AID 624364);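 note: A375 melanoma cells are MITF independent so this is a counter screen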", "assay_type": "functional, cell-based", "conditions": "A-375"}, "[15]": {"experiment": "A375 melanoma cell cytotoxicity, dose response, counter-screen for MITF inhibitor project, CellTiter-Glo luminescence, dry powder, set 2 (AID 624489);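 note: actives are compounds lowering A375 viability meaning general cytotoxicity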", "assay_type": "functional, cell-based", "conditions": "A-375"}, "[16]": {"molecular_target": "T2, Low molecular weight phosphotyrosine protein phosphatase (Homo sapiens, UniProt P24666)", "T2 sequence (P24666 whole entry)": "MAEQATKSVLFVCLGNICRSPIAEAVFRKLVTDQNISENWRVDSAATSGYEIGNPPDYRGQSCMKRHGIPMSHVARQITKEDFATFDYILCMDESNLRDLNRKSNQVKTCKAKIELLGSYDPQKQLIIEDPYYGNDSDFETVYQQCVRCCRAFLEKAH", "experiment": "LMPTP phosphatase inhibitors, dose response, biochemical, OMFP substrate, fluorescence intensity, set 2 (AID 743307)", "assay_type": "functional"}, "[17]": {"molecular_target": "T2, Low molecular weight phosphotyrosine protein phosphatase", "experiment": "LMPTP phosphatase inhibitors, colorimetric pNPP readout, dose response, orthogonal assay, biochemical, absorbance, pNPP substrate, LMPTP-A isoform, set 2 (AID 743308)", "assay_type": "functional"}, "P388/ADR": {"tested_on": "P388/ADR", "experiment": "cells", "assay_type": "functional", "conditions": "Mus musculus"}, "SN12K1": {"tested_on": "SN12K1", "experiment": "cells", "assay_type": "functional", "conditions": "Homo sapiens"}, "P388": {"tested_on": "P388", "experiment": "cells", "assay_type": "functional", "conditions": "Mus musculus"}, "[18]": {"experiment": "HeLa 2N DNA content increase, dose response, cell-based, IC50 (AID 1117349)", "assay_type": "functional"}, "[19]": {"experiment": "SNU-C1 cell viability reduction, dose response, CellTiter-Glo luminescence (AID 1117323)", "assay_type": "functional, cell-based"}, "[20]": {"experiment": "HeLa 4N DNA content increase, dose response, cell-based, IC50 (AID 1117351)", "assay_type": "functional"}}, "note": "The source made the active and inactive calls.", "data": [{"smiles": "CCn1c(SCC(=O)Nc2ccc3c(c2)c2ccccc2n3CC)nnc1-c1ccco1", "values": [{"measurement": "CC50", "setting": "[1]", "value": "48.9 µM (active)"}, {"measurement": "IC50", "setting": "Genome polyprotein", "value": "> 49.8 µM (not active)"}, {"measurement": "IC50", "setting": "Estrogen receptor", "value": "> 50 µM (not active)"}]}, {"smiles": "CCN(CC)C(=O)c1cccc(-n2sc3ccccc3c2=O)c1", "values": [{"measurement": "IC50", "setting": "[2]", "value": "16.7 µM (active)"}]}, {"smiles": "CN(Cc1cc(Cl)cc(Cl)c1)[C@H]1C[C@H]2c3[nH]c4ccccc4c3CCN2C(=O)[C@H]1CO", "values": [{"measurement": "IC50", "setting": "[3]", "value": "1.64 µM (active)"}, {"measurement": "IC50", "setting": "[4]", "value": "80.2 µM (inactive)"}, {"measurement": "IC50", "setting": "[5]", "value": "1.33 µM (active)"}, {"measurement": "IC50", "setting": "[6]", "value": "31.7 µM (inactive)"}]}, {"smiles": "CCCCCCCC/C=C\\CCCCCCCCN", "values": [{"measurement": "IC50", "setting": "[7]", "value": "> 40 µM (inactive)"}, {"measurement": "IC50", "setting": "[8]", "value": "14.8 µM (inactive)"}]}, {"smiles": "CCN1CCN(Cc2nc3ccc([N+](=O)[O-])cc3c(=O)n2-c2cccc(F)c2)CC1", "values": [{"measurement": "IC50", "setting": "[9]", "value": "450 nM (active)"}, {"measurement": "IC50", "setting": "[10]", "value": "310 nM (active)"}]}, {"smiles": "Cc1nnc(NC(=O)c2ccc(S(=O)(=O)N3CCCCC3)cc2)o1", "values": [{"measurement": "AC50", "setting": "[11]", "value": "> 100 µM (inactive)"}]}, {"smiles": "O=C(C1CCN(c2ccc(C(F)(F)F)cn2)CC1)N(CC1CC1)c1ccc(Cl)cc1", "values": [{"measurement": "IC50", "setting": "[12]", "value": "123 nM (active)"}, {"measurement": "IC50", "setting": "Vasopressin V1b receptor", "value": "31.7 µM (inactive)"}, {"measurement": "IC50", "setting": "Vasopressin V2 receptor", "value": "19.3 µM (inactive)"}, {"measurement": "IC50", "setting": "[13]", "value": "12.6 µM (inactive)"}]}, {"smiles": "O=C1C(Nc2ccccc2)=C(N2CCN(c3ccccc3)CC2)C(=O)c2ccccc21", "values": [{"measurement": "AC50", "setting": "[14]", "value": "> 70 µM (inactive)"}, {"measurement": "AC50", "setting": "[15]", "value": "> 70 µM (inactive)"}]}, {"smiles": "c1ccc(-c2nc(N3CCSCC3)c3ccccc3n2)cc1", "values": [{"measurement": "IC50", "setting": "[16]", "value": "> 80 µM (inactive)"}, {"measurement": "IC50", "setting": "[17]", "value": "> 80 µM (inactive)"}]}, {"smiles": "CN(Cc1cnc2nc(N)nc(N)c2n1)c1ccc(C(=O)N[C@@H](CCC(=O)O)C(=O)O)cc1", "note": "[METHOTREXATE]", "values": [{"measurement": "GI50", "setting": "P388/ADR", "value": "25 nM (active)"}, {"measurement": "GI50", "setting": "SN12K1", "value": "25 nM (active)"}, {"measurement": "GI50", "setting": "P388", "value": "25 nM (active)"}, {"measurement": "IC50", "setting": "[18]", "value": "> 10 µM (inactive)"}, {"measurement": "IC50", "setting": "[19]", "value": "> 20 µM (inactive)"}, {"measurement": "IC50", "setting": "[20]", "value": "> 10 µM (inactive)"}]}]}
